Test results reported in patent US20250129070A1, “BIFUNCTIONAL ANDROGEN RECEPTOR COMPOUNDS” (priority 2023, published 2025).

Assays:
Assay type in all cases: cell-based
VCaP cells = assay: VCaP growth inhibition assay; conditions: 30 pM R1881, 9 days, CTG
Outline: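 Growth read by CTG luminescence after 9-day exposure to compound (final 100 nM–10 fM, 1:5 steps) plus 30 pM R1881, in phenol red-free DMEM with 5% CSS. Cells pre-incubated 72 h before dosing; IC50 by nonlinear 4-parameter regression.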

HEK-293 cells = assay: HEK-293 growth inhibition assay; conditions: 3 days, CTG
Procedure: Cluster plates are returned to the incubator (37*C/5% CO2) for 24 hours prior to treatment. […] Cluster plates are returned to the incubator for 3 days.
After the 3-day treatment period, 100 uL media was removed from each well by aspiration and 100 uL room temperature CTG reagent (Promega Cat #G7573) is added back to each well. The cluster plates are placed on a shaker and incubated at room temperature for 20 minutes. Following this shaking/incubation, cluster plates are read on a luminometer (BMG ClarioStar). IC50 values are obtained by graphing the RLU data vs. compound concentration with nonlinear regression 4-parameter logistic curves (GraphPad Prism).

AR / CBP ternary complex = assay: Ternary complex formation assay (sandwich ELISA, AR capture / CBP detection) in VCaP cell lysates; conditions: 1.5 hours treatment, sandwich ELISA (AR capture, CBP or p300 detection)
Outline: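 Anti-AR (AR 441)-coated plates capture AR from lysates of VCaP cells grown ≥3 days at 50K/well in 5% charcoal-stripped FBS, dosed with bifunctional for 1.5 h and lysed 30 min at 4 °C. Co-captured CBP/p300 is probed with rabbit mAb and HRP anti-rabbit, then QuantaRed fluorescence (570/585) is read at 0, 5 and 15 min.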

IC50 (VCaP cells) [nM] | EC50 (AR / CBP ternary complex) [nM] | Structure (SMILES) | IC50 (HEK-293 cells) [nM]
≤ 0.1 | < 1 | CC(=O)N1CCc2c(c(N3CCCc4cc(-c5cnn(C)c5)c(C(F)F)cc43)nn2C2CCN(C[C@@H]3CCN(c4ncc(C(=O)NC5C(C)(C)C(Oc6ccc(C#N)c(Cl)c6)C5(C)C)cn4)C[C@@H]3C)CC2)C1 (stereo partly drawn) [Compound 275, 2-[(3R,4R)-4-[[4-[5-acetyl-3-[7-(difluoromethyl)-6-(1-methylpyrazol-4-yl)-3,4-dihydro-2H-quinolin-1-yl]-6,7-dihydro-4H-pyrazolo[4,3-c]pyridin-1-yl]-1-piperidyl]methyl]-3-methyl-1-piperidyl]-N-[3-(3-chloro-4-cyano-phenoxy)-2,2,4,4-tetramethyl-cyclobutyl]pyrimidine-5-carboxamide] | > 1000
≤ 0.1 | < 1 | COc1cc(OC2C(C)(C)C(NC(=O)c3ccc(N4CCC(CN5CCC(n6nc(N7CCCc8cc(-c9cnn(C)c9)c(C(F)F)cc87)c7c6CCN(C(C)=O)C7)CC5)C(C)C4)cc3)C2(C)C)ccc1C#N (stereo not drawn) [Compound 263, 4-[4-[[4-[5-acetyl-3-[7-(difluoromethyl)-6-(1-methylpyrazol-4-yl)-3,4-dihydro-2H-quinolin-1-yl]-6,7-dihydro-4H-pyrazolo[4,3-c]pyridin-1-yl]-1-piperidyl]methyl]-3-methyl-1-piperidyl]-N-[3-(4-cyano-3-methoxy-phenoxy)-2,2,4,4-tetramethyl-cyclobutyl]benzamide] | > 1000
≤ 0.1 | < 1 | CC(=O)N1CCc2c(c(N3CCCc4cc(-c5cnn(C)c5)c(C(F)F)cc43)nn2C2CCN(CC3CN(c4ncc(C(=O)NC5C(C)(C)C(Oc6ccc(C#N)c(Cl)c6)C5(C)C)cn4)C3)CC2)C1 (stereo not drawn) [Compound 20, 2-[3-[[4-[5-acetyl-3-[7-(difluoromethyl)-6-(1-methylpyrazol-4-yl)-3,4-dihydro-2H-quinolin-1-yl]-6,7-dihydro-4H-pyrazolo[4,3-c]pyridin-1-yl]-1-piperidyl]methyl]azetidin-1-yl]-N-[3-(3-chloro-4-cyano-phenoxy)-2,2,4,4-tetramethyl-cyclobutyl]pyrimidine-5-carboxamide] | > 10000

Structure (SMILES) | IC50 (VCaP cells) [nM] | EC50 (AR / CBP ternary complex) [nM] | IC50 (HEK-293 cells) [nM]
CNC(=O)N1CCc2c(c(N3CCCc4cc(-c5cnn(C)c5)c(C(F)F)cc43)nn2C2CCN(C(=O)COCCOC3CCN(c4ncc(C(=O)NC5C(C)(C)C(Oc6ccc(C#N)c(Cl)c6)C5(C)C)cn4)CC3)CC2)C1 (stereo not drawn) [Compound 98, 1-[1-[2-[2-[[1-[5-[[3-(3-chloro-4-cyano-phenoxy)-2,2,4,4-tetramethyl-cyclobutyl]carbamoyl]pyrimidin-2-yl]-4-piperidyl]oxy]ethoxy]acetyl]-4-piperidyl]-3-[7-(difluoromethyl)-6-(1-methylpyrazol-4-yl)-3,4-dihydro-2H-quinolin-1-yl]-N-methyl-6,7-dihydro-4H-pyrazolo[4,3-c]pyridine-5-carboxamide] | ≤ 0.1 | < 1 | > 10000
CC(=O)N1CCc2c(c(N3CCCc4cc(-c5cnn(C)c5)c(C(F)F)cc43)nn2C2CCN(C(=O)OC3CCN(c4ncc(C(=O)NC5C(C)(C)C(Oc6ccc(C#N)c(Cl)c6)C5(C)C)cn4)CC3)CC2)C1 (stereo not drawn) [Compound 70, [1-[5-[[3-(3-chloro-4-cyano-phenoxy)-2,2,4,4-tetramethyl-cyclobutyl]carbamoyl]pyrimidin-2-yl]-4-piperidyl]4-[5-acetyl-3-[7-(difluoromethyl)-6-(1-methylpyrazol-4-yl)-3,4-dihydro-2H-quinolin-1-yl]-6,7-dihydro-4H-pyrazolo[4,3-c]pyridin-1-yl]piperidine-1-carboxylate] | 0.1 to 1 | < 1 | > 10000
